Source: PMC2193167 (The Journal of Experimental Medicine, 2000)
No end group written: not given here.

Key:
[1] = tested on: normal melanocytes in AAD^+tyrosinase^+ (or AAD^−) C57BL/6 mice; conditions: mouse, in vivo
HLA-A*0201 = HLA-A*0201 (Homo sapiens, UniProt P04439, D140Y/D185E/D98H/E176V/E277Q/G131W/G231S/I119V/I121R/I166T/I218V/L300P/L318F/N151K/N90K/P208A/P217A/Q86G/Q94H/R138H/R169H/T345S); assay: Class I peptide binding affinity assay

**Q.** Which “vitiligo, in words” value [1] does the source give for “IL-2: Proleukin (IL-2; Chiron), given alone without CTLs” here?
**A.** vitiligo was not observed

**Q.** With `CSCC[C@H](NC(=O)[C@@H](NC(=O)CNC(=O)[C@H](CC(=O)O)NC(=O)[C@H](CCSC)NC(=O)[C@@H](N)Cc1ccc(O)cc1)[C@@H](C)O)C(=O)N[C@@H](CO)C(=O)N[C@@H](CCC(N)=O)C(=O)N[C@H](C(=O)O)C(C)C` [YMDGTMSQV] as the molecule, how does the IC50 (HLA-A*0201) read?
**A.** 74 nM

**Q.** FMDGTMSQV [FMDGTMSQV] was tested. Which IC50 (HLA-A*0201) did it give?
**A.** 65 nM
